Source: EP4681700A1, “GSE24.2-DERIVED PEPTIDE AND USES THEREOF” (Consejo Superior De Investigaciones Científicas - CSIC, priority 2023, dated 2026)

Tests used:
[1] = tested on: rat lung epithelial cells RL6TN; assay: yH2AX Western blot (DNA damage) in cells transduced with lentiviral peptide expression vectors; format: cell-based; settings: 6 hours, relative to β-actin, normalised to CT
Protocol: In the experiment shown in Figure 1, rat lung epithelial cells RL6TN were transduced with lentiviral vectors directing the expression of the peptides under study and the corresponding controls. The presence of γH2AX was then determined by means of Western blot assays.
(§1) RL6TN cells were transduced with lentiviral vectors directing the expression of the different peptides under study (sequences derived from pCCL-hPGK.GSE4.wPREchim, SEQ ID NO. 62, in which the oligonucleotides corresponding to each peptide, shown in Table 4, SEQ ID Nos: 46-60, have been included between restriction sites Sall and Xbal) or of the GFP protein (green fluorescent protein) (PGK-EGFP sequence, SEQ ID NO. 63) as negative control. 600,000 non-transduced (control, CT) cells or cells transduced with the different lentiviral vectors were cultured for 6 hours in the absence (Panel A) or presence of 4 µg/mL of bleomycin (Merck, Burlington, MA. USA) (Panel B). After this culture period, the cells were lysed and the amount of yH2AX was determined by means of Western blot using an yH2AX-specific antibody (Cell Signalling Technology, Danvers, MA, USA). Expression of the β-actin protein as loading control was simultaneously determined using a specific antibody (Santa Cruz Biotechnology, Dallas, TX, USA). Protein expression was quantified using a luminometer. The expression of yH2AX in each sample was calculated based on the amount of β-actin. These relative values were normalised to the value corresponding to control cells not treated with bleomycin.

HaCaT cells [2] = assay: IL-6 mRNA expression by quantitative PCR in transduced cells; format: cell-based, human; settings: Figure 5B
Protocol: (§2) Another important component of tissue ageing is the production of pro-inflammatory interleukins that induce the presence of basal inflammation in tissues. This inflammatory situation also occurs in some diseases of premature ageing and in response to environmental aggressions. Interleukin-6 (IL-6) is one of the main pro-inflammatory molecules and, for this reason, the possible effect of the expression of the peptides on the synthesis of this molecule was determined. In these experiments, the expression of the mRNA encoding IL-6 in cells transduced with the expression vectors of the P3 peptide and controls was determined.
(§3) RNA was obtained from RL6TN cells (Figure 5, panel A) or HaCaT cells (Figure 5, panel B) not transduced (CT) or transduced with lentiviral vectors expressing GFP or the GSE4 or P3 peptides. cDNA was synthesised from each RNA by reverse transcription and the amount of mRNA encoding IL-6 was quantified by quantitative PCR as described in Examples 2 and 3 above.
(§4) The obtained results are shown in Figures 5A (RLE6TN cells) and 5B (HaCaT cells). In the assays with RLE6TN cells, oligonucleotides with SEQ ID Nos: 39 and 40 for IL-6 and SEQ ID Nos: 43 and 44 for GAPDH were used for quantitative PCRs. In the assay performed with HaCaT cells, oligonucleotides with SEQ ID Nos: 37 and 38 for IL-6 and SEQ ID Nos: 41 and 42 for GAPDH were used.

HaCaT cells [3] = assay: yH2AX Western blot (DNA damage signalling) in transduced keratinocytes; format: cell-based, human; settings: 6 hours
Excerpt: as §1
DNA damage signalling studies were reproduced in human skill keratinocyte cell line HaCaT. This cell line is often used to study skin's response to environmental and pathogenic agents. HaCaT cells were transduced with lentiviral vectors which allow the expression of the P3 peptide, the GSE4 peptide, as a positive control, or GFP as a negative control. 100,000 non-transduced (CT) cells or cells transduced with the various peptides were cultured in the absence (Figure 2A) or presence of 50 µg/mL of bleomycin (Figure 2B) for 6 hours. Subsequently, the cells were lysed and the amount of yH2AX present in the extracts was determined by Western Blot in the same way as indicated for the assays in RL6TN cells described above.

RLE6TN cells [4] = assay: TERT and TERC mRNA expression by quantitative PCR in transduced cells; format: cell-based, rat; settings: corrected by GAPDH, normalised to CT; for expression of Tert mRNA: Figure 3A; for expression of Terc: p<0.05, Figure 3B
Excerpt: (§5) RNA was isolated from control cells or cells transduced with vectors expressing GFP or the GSE4 and P3 peptides. The corresponding cDNAs, which were used to determine the expression levels of the mRNA encoding TERT (Figure 3, panels A and C) and TERC (Figure 3, panels B and D) by means of quantitative PCR, were synthesised from these RNAs. Expression levels were corrected by levels corresponding to the mRNA encoding GAPDH, used as a control. Relative values were normalised with respect to values obtained for non-transduced control cells (CT). Panels A and B show the results obtained for RL6TN cells and panels C and D show the results corresponding to HaCaT cells.
For assays performed in RLE6TN cells, shown in Figures 3A and 3B, oligonucleotides corresponding to SEQ ID Nos: 23, 24 for TERT, SEQ ID Nos:27, 28 for TERC, and SEQ ID Nos:43, 44 for GAPDH were used in quantitative PCR assays.

RLE6TN cells [5] = assay: TGFβ-induced expression of TGFβ receptor and MCP1 mRNA (epithelial/mesenchymal transition), quantitative PCR; format: cell-based, rat; settings: 5 ng/mL TGFβ, 48 of culture; for induction of expression of Mcp1 mRNA after incubating the cells with TGFβ: p<0.01 for P3 and GSE4, Figure 4A; for induction of expression of Tgfbr1 mRNA after incubating the cells with TGFβ: p<0.05 for P3, Figure 4A
Excerpt: (§6) The ageing of some tissues is accompanied by fibrotic processes in which fibroblasts and myofibroblasts accumulate and in which epithelial/mesenchymal transition of epithelial cells is induced. This process occurs, for example, in idiopathic pulmonary fibrosis and in fibrosis processes as a result of skin exposure to ionising radiation. Many of these processes are mediated by the secretion of the cytokine TGFβ (transforming growth factorβ). The possible effect of the peptides on these processes was studied by incubating cells with TGFβ (R&D Systems, Bio-Techne, Minneapolis; MN, USA) and studying the expression of two mRNAs induced by this cytokine, i.e., the TGFβ receptor (TGFβR1/2) and the cytokine MCP1 (also referred to as CCL2) by means of reverse transcription of RNA and quantitative PCR.
(§7) Control cells or cells transduced with GFP expression vectors, or the GSE4 and P3 peptides were cultured in the absence or presence of a concentration of 5 ng/mL of the TGFβ factor (identified with the symbol + in Figure 4) to induce epithelial/mesenchymal transition. After 48 of culture, RNA was obtained from the cells and converted into cDNA by means of reverse transcription. The expression levels of the mRNA encoding TGFBR-1/2 (TGFβ-receptor 1 or 2) and MCP1 (monocyte chemoattractant protein-1, also referred to as CCL2: C-C motif chemokine ligand 2) were determined by quantitative PCR. The values obtained were corrected by those corresponding to the control mRNA (GAPDH) and normalised by the expression in control cells (CT).
(§8) In the assays shown in Figures 4A, for RLE6TN cells, oligonucleotides SEQ ID Nos 31 and 32 for TGFBR1, 35 and 36 for MCP1, and 43 and 44 for GAPDH were used in quantitative PCR. To obtain the results shown in Figure 4B, for HaCaT cells, oligonucleotides SEQ ID Nos: 29 and 30 for TGFBR2, SEQ ID Nos: 33 and 34 for MCP1, and SEQ ID Nos: 41y 42 for GAPDH b were used.

HaCaT cells [6] = assay: as above; format: cell-based, human; settings: 5 ng/mL TGFβ, 48 of culture; for induction of expression of TGFBR2 mRNA after incubating the cells with TGFβ: Figure 4B; for induction of expression of MCP1 mRNA after incubating the cells with TGFβ: p<0.05 for P3, Figure 4B
Excerpt: as §6, §7, §8

RLE6TN cells [7] = assay: IL-6 mRNA expression by quantitative PCR in transduced cells; format: cell-based, rat; settings: Figure 5A
Protocol: as §2, §3, §4

HaCaT cells [8] = assay: TERT and TERC mRNA expression by quantitative PCR in transduced cells; format: cell-based, human; settings: corrected by GAPDH, normalised to CT; for expression of Terc: p<0.001 for P3 only, Figure 3D; for expression of TERT: p<0.01 for both peptides, Figure 3C
Excerpt: as §5
The results obtained for HaCaT cells are depicted in Figures 3C and 3D where oligonucleotides corresponding to SEQ ID Nos: 21, 22 for TERT, SEQ ID Nos: 25, 26 for TERC, and SEQ ID Nos: 41, 42 for GAPDH were used. […] This difference is statistically significant for both peptides in the case of TERT (**, p<0.01, ANOVA test and Dunnett's post-hoc test) and for the P3 peptide in the case of TERC (***, p<0.001, ANOVA test and Dunnett's post-hoc test).

[9] = 4 µg/mL of bleomycin, Figure 1B
[10] = culture control conditions (absence of bleomycin), Figure 1A
[11] = baseline damage (absence of bleomycin), Figure 2A

Q: Which “levels of yH2AX” value [1, 9] does the source give for “DKPSNPSSHE [P3, GSE24.2-derived peptide of 10 amino acids, expressed in cells from a lentiviral vector]” here?
A: The value was “causes a decrease in the levels of yH2AX”.

Q: What about the “levels of yH2AX” value [1, 10] of the same sequence?
A: Its value is “causes a decrease in the levels of yH2AX”.

Q: What about the “expression of IL-6 mRNA” value (HaCaT cells [2]) of the same sequence?
A: The value was “decreased the expression of IL-6 mRNA”.

Q: What about the “DNA damage signalling (amount of yH2AX)” value (HaCaT cells [3]; 50 µg/mL of bleomycin, Figure 2B) of the same sequence?
A: The value was “reduces DNA damage signalling”.

Q: What about the “DNA damage signalling (amount of yH2AX)” value (HaCaT cells [3]; [11]) of the same sequence?
A: Its value is “reduces DNA damage signalling”.

Q: What about the “expression of Tert mRNA” value (RLE6TN cells [4]) of the same sequence?
A: Its value is “an increase was also observed”.

Q: And the “expression of Terc” value (RLE6TN cells [4])?
A: Its value is “significant increase”.

Q: And the “induction of expression of Mcp1 mRNA after incubating the cells with TGFβ” value (RLE6TN cells [5])?
A: Its value is “decreases the induction of expression of both markers”.

Q: What about the “induction of expression of Tgfbr1 mRNA after incubating the cells with TGFβ” value (RLE6TN cells [5]) of the same sequence?
A: The value was “decreases the induction of expression of both markers”.

Q: And the “induction of expression of TGFBR2 mRNA after incubating the cells with TGFβ” value (HaCaT cells [6])?
A: Its value is “decreases the induction of expression of both markers”.

Q: And the “induction of expression of MCP1 mRNA after incubating the cells with TGFβ” value (HaCaT cells [6])?
A: The value was “decreases the induction of expression of both markers”.

Q: What about the “expression of IL-6 mRNA” value (RLE6TN cells [7]) of the same sequence?
A: Its value is “decreased the expression of IL-6 mRNA”.

Q: What about the “expression of Terc” value (HaCaT cells [8]) of the same sequence?
A: Its value is “caused an increase”.

Q: What about the “expression of TERT” value (HaCaT cells [8]) of the same sequence?
A: Its value is “caused an increase”.

Q: Which results are given for GFINLDKPSNP [GSE4, reference compound]?
A: levels of yH2AX [1, 9]: This decrease is greater than that caused by the expression of the GSE4 peptide; levels of yH2AX [1, 10]: This decrease is greater than that caused by the expression of the GSE4 peptide; expression of IL-6 mRNA (HaCaT cells [2]): decreased the expression of IL-6 mRNA; DNA damage signalling (amount of yH2AX) (HaCaT cells [3]; [11]): the reduction is greater than that caused by the expression of GSE4; expression of Tert mRNA (RLE6TN cells [4]): an increase was also observed; expression of Terc (RLE6TN cells [4]): significant increase; induction of expression of Mcp1 mRNA after incubating the cells with TGFβ (RLE6TN cells [5]): also causes this inhibitory effect of the response to TGFβ; induction of expression of Tgfbr1 mRNA after incubating the cells with TGFβ (RLE6TN cells [5]): also causes this inhibitory effect of the response to TGFβ; induction of expression of TGFBR2 mRNA after incubating the cells with TGFβ (HaCaT cells [6]): also causes this inhibitory effect of the response to TGFβ; induction of expression of MCP1 mRNA after incubating the cells with TGFβ (HaCaT cells [6]): also causes this inhibitory effect of the response to TGFβ; expression of IL-6 mRNA (RLE6TN cells [7]): decreased the expression of IL-6 mRNA; expression of Terc (HaCaT cells [8]): caused an increase; expression of TERT (HaCaT cells [8]): caused an increase
